# Assay results as given in patent publication US20210267944A1 (BioXcel Therapeutics, Inc., priority 2018, published 2021).
# Counter-ions that a name gives are not always drawn. Like-named read-outs stand apart in the source and are kept apart here.
# Details: for Respiration rate, Min / Systolic blood pressure, Max / Systolic blood pressure, Mean ± SD / Systolic blood pressure, Median / Systolic blood pressure, Min / Diastolic blood pressure Max / Diastolic blood pressure Mean ± SD / Diastolic blood pressure Median / Diastolic blood pressure Min / Pulse rate, Max / Pulse rate, Mean ± SD / Pulse rate, Median / Pulse rate, Min / Respiration rate, Max / Respiration rate, Mean ± SD / Respiration rate, Median: SDAT patients, IV infusion; for Subject stopping Criteria met (safety stoppage rule): subject 102
# Protocol: Study drug IV infusion was to be stopped at any time if any of the following occurred: • There was more than 20 mm Hg decrease in systolic or diastolic blood pressure. • There was an isolated drop in Systolic BP<100 mm of Hg. • There was an isolated drop Diastolic BP<60 mm of Hg. • There was a decrease in heart rate of 20 beats per minute or a drop below 50 beats per minute. • Attainment of a RASS of −1 at the end of each 30 minutes infusion period.
# Return to baseline parameters was defined as BP falling within 15 mm of Hg of baseline reading prior to drug administration or HR falling within 10 beats per minute of baseline reading prior to drug administration.
structure (smiles),measurement,setting,value
Cc1cccc([C@H](C)c2cnc[nH]2)c1C [dexmedetomidine hydrochloride],"Respiration rate, Min",01:15 Hr,15 breaths/min
same,"Systolic blood pressure, Max",01:15 Hr,152 mm of Hg
same,"Systolic blood pressure, Mean ± SD",01:15 Hr,135.6 ± 13.94 mm of Hg
same,"Systolic blood pressure, Median",01:15 Hr,141.0 mm of Hg
same,"Systolic blood pressure, Min",01:15 Hr,110 mm of Hg
same,Diastolic blood pressure Max,01:30 Hr,84 mm of Hg
same,Diastolic blood pressure Mean ± SD,01:30 Hr,70.6 ± 8.14 mm of Hg
same,Diastolic blood pressure Median,01:30 Hr,70.0 mm of Hg
same,Diastolic blood pressure Min,01:30 Hr,62 mm of Hg
same,"Pulse rate, Max",01:30 Hr,94 beats/min
same,"Pulse rate, Mean ± SD",01:30 Hr,72.0 ± 14.66 beats/min
same,"Pulse rate, Median",01:30 Hr,71.0 beats/min
same,"Pulse rate, Min",01:30 Hr,52 beats/min
same,"Respiration rate, Max",01:30 Hr,25 breaths/min
same,"Respiration rate, Mean ± SD",01:30 Hr,18.6 ± 3.38 breaths/min
same,"Respiration rate, Median",01:30 Hr,19.0 breaths/min
same,"Respiration rate, Min",01:30 Hr,15 breaths/min
same,"Systolic blood pressure, Max",01:30 Hr,156 mm of Hg
same,"Systolic blood pressure, Mean ± SD",01:30 Hr,130.9 ± 13.44 mm of Hg
same,"Systolic blood pressure, Median",01:30 Hr,129.5 mm of Hg
same,"Systolic blood pressure, Min",01:30 Hr,112 mm of Hg
same,Diastolic blood pressure Max,01:45 Hr,86 mm of Hg
same,Diastolic blood pressure Mean ± SD,01:45 Hr,69.5 ± 11.82 mm of Hg
same,Diastolic blood pressure Median,01:45 Hr,66.0 mm of Hg
same,Diastolic blood pressure Min,01:45 Hr,60 mm of Hg
same,"Pulse rate, Max",01:45 Hr,100 beats/min
same,"Pulse rate, Mean ± SD",01:45 Hr,79.0 ± 14.23 beats/min
same,"Pulse rate, Median",01:45 Hr,79.0 beats/min
same,"Pulse rate, Min",01:45 Hr,61 beats/min
same,"Respiration rate, Max",01:45 Hr,23 breaths/min
same,"Respiration rate, Mean ± SD",01:45 Hr,18.6 ± 2.51 breaths/min
same,"Respiration rate, Median",01:45 Hr,18.0 breaths/min
same,"Respiration rate, Min",01:45 Hr,17 breaths/min
same,"Systolic blood pressure, Max",01:45 Hr,158 mm of Hg
same,"Systolic blood pressure, Mean ± SD",01:45 Hr,131.3 ± 23.43 mm of Hg
same,"Systolic blood pressure, Median",01:45 Hr,131.0 mm of Hg
same,"Systolic blood pressure, Min",01:45 Hr,105 mm of Hg
same,Diastolic blood pressure Max,02:00 Hr,86 mm of Hg
same,Diastolic blood pressure Mean ± SD,02:00 Hr,78.7 ± 11.02 mm of Hg
same,Diastolic blood pressure Median,02:00 Hr,84.0 mm of Hg
same,Diastolic blood pressure Min,02:00 Hr,66 mm of Hg
same,"Pulse rate, Max",02:00 Hr,94 beats/min
same,"Pulse rate, Mean ± SD",02:00 Hr,77.3 ± 20.82 beats/min
same,"Pulse rate, Median",02:00 Hr,84.0 beats/min
same,"Pulse rate, Min",02:00 Hr,54 beats/min
same,"Respiration rate, Max",02:00 Hr,20 breaths/min
same,"Respiration rate, Mean ± SD",02:00 Hr,18.3 ± 1.53 breaths/min
same,"Respiration rate, Median",02:00 Hr,18.0 breaths/min
same,"Respiration rate, Min",02:00 Hr,17 breaths/min
same,"Systolic blood pressure, Max",02:00 Hr,156 mm of Hg
same,"Systolic blood pressure, Mean ± SD",02:00 Hr,143.3 ± 17.01 mm of Hg
same,"Systolic blood pressure, Median",02:00 Hr,150.0 mm of Hg
same,"Systolic blood pressure, Min",02:00 Hr,124 mm of Hg
same,Diastolic blood pressure Max,02:15 Hr,85 mm of Hg
same,Diastolic blood pressure Mean ± SD,02:15 Hr,69.7 ± 13.28 mm of Hg
same,Diastolic blood pressure Median,02:15 Hr,62.0 mm of Hg
same,Diastolic blood pressure Min,02:15 Hr,62 mm of Hg
same,"Pulse rate, Max",02:15 Hr,94 beats/min
same,"Pulse rate, Mean ± SD",02:15 Hr,74.3 ± 21.13 beats/min
same,"Pulse rate, Median",02:15 Hr,77.0 beats/min
same,"Pulse rate, Min",02:15 Hr,52 beats/min
same,"Respiration rate, Max",02:15 Hr,20 breaths/min
same,"Respiration rate, Mean ± SD",02:15 Hr,19.3 ± 1.15 breaths/min
same,"Respiration rate, Median",02:15 Hr,20.0 breaths/min
same,"Respiration rate, Min",02:15 Hr,18 breaths/min
same,"Systolic blood pressure, Max",02:15 Hr,159 mm of Hg
same,"Systolic blood pressure, Mean ± SD",02:15 Hr,142.7 ± 20.98 mm of Hg
same,"Systolic blood pressure, Median",02:15 Hr,150.0 mm of Hg
same,"Systolic blood pressure, Min",02:15 Hr,119 mm of Hg
same,Diastolic blood pressure Max,02:30 Hr,83 mm of Hg
same,Diastolic blood pressure Mean ± SD,02:30 Hr,76.5 ± 9.19 mm of Hg
same,Diastolic blood pressure Median,02:30 Hr,76.5 mm of Hg
same,Diastolic blood pressure Min,02:30 Hr,70 mm of Hg
same,"Pulse rate, Max",02:30 Hr,96 beats/min
same,"Pulse rate, Mean ± SD",02:30 Hr,85.5 ± 14.85 beats/min
same,"Pulse rate, Median",02:30 Hr,85.5 beats/min
same,"Pulse rate, Min",02:30 Hr,75 beats/min
same,"Respiration rate, Max",02:30 Hr,"20, 20 breaths/min"
same,"Respiration rate, Mean ± SD",02:30 Hr,20.0 ± 0.00 breaths/min
same,"Respiration rate, Median",02:30 Hr,20.0 breaths/min
same,"Respiration rate, Min",02:30 Hr,"20, 20 breaths/min"
same,"Systolic blood pressure, Max",02:30 Hr,154 mm of Hg
same,"Systolic blood pressure, Mean ± SD",02:30 Hr,153.0 ± 1.41 mm of Hg
same,"Systolic blood pressure, Median",02:30 Hr,153.0 mm of Hg
same,"Systolic blood pressure, Min",02:30 Hr,152 mm of Hg
same,"Diastolic blood pressure mean values, in words","SDAT, during infusion",within clinically acceptable limits
same,"Pulse rate mean values, in words","SDAT, during infusion",within clinically acceptable limits
same,"Respiration rate values, in words","SDAT, during infusion",within clinically acceptable limits
same,"Systolic blood pressure mean values, in words","SDAT, during infusion",within clinically acceptable limits
same,Subject stopping Criteria met (safety stoppage rule),SDAT,only one subject's systolic BP reduced by more than 20 mm of Hg
same,Subject stopping Criteria met (safety stoppage rule),"SDAT, listed as Test",SBP >20 mm of Hg decrease
same,time for systolic BP to return to baseline levels after infusion was stopped,"SDAT, the one subject with SBP decrease >20 mm of Hg",≤ 10 min
